Data taken from patent US20150238601A1, “TREATMENT OF OCULAR DISORDERS” (KADMON CORPORATION, LLC, priority 2012, published 2015).
Structures can show the parent of a compound that is named as a salt. Where two headings read alike, the source gives them in different places.

Columns and labels:
ROCK2 = target: T1, ROCK2 (Homo sapiens, UniProt O75116); assay: Invitrogen Z'-LYTE Kinase Assay; format: biochemical
T1 construct: purchased Invitrogen PV3759
Source text: (§2) Dose response curves for Rho-kinase inhibition were derived from a Invitrogen Z′-LYTE™ Kinase Assay Kit (Invitrogen catalog number PV3793). Purified active ROCK1 and ROCK2 were obtained from Invitrogen (catalog numbers ROCK1, PV3691 and ROCK2, PV3759). The kit components include a coumarin and fluorescein labeled peptide based on myosin light chain 2 ([sequence]), a proprietary protease containing development reagent and a proprietary Stop buffer used to terminate the development reaction. The inhibitory activities of compounds are measured according to the manufactures protocol. […] The assay proceeds at room temperature for 1 hour followed by the addition of development reagent, and further incubation for 1 hour at room temperature. […] By comparing the emission ratios of the test samples against control samples, percent phosphorylation values are calculated and the concentration of inhibitor that produces 1/2 inhibition of kinase activity (IC50) is determined using Prism.

ROCK1 [1] = target: T2, ROCK1 (Homo sapiens, UniProt Q13464); assay: Invitrogen Z'-LYTE Kinase Assay; format: biochemical; design: purchased Invitrogen PV3691; details: 5 uM ATP, ROCK1 0.18 ug/mL
T2 sequence (Q13464 whole entry): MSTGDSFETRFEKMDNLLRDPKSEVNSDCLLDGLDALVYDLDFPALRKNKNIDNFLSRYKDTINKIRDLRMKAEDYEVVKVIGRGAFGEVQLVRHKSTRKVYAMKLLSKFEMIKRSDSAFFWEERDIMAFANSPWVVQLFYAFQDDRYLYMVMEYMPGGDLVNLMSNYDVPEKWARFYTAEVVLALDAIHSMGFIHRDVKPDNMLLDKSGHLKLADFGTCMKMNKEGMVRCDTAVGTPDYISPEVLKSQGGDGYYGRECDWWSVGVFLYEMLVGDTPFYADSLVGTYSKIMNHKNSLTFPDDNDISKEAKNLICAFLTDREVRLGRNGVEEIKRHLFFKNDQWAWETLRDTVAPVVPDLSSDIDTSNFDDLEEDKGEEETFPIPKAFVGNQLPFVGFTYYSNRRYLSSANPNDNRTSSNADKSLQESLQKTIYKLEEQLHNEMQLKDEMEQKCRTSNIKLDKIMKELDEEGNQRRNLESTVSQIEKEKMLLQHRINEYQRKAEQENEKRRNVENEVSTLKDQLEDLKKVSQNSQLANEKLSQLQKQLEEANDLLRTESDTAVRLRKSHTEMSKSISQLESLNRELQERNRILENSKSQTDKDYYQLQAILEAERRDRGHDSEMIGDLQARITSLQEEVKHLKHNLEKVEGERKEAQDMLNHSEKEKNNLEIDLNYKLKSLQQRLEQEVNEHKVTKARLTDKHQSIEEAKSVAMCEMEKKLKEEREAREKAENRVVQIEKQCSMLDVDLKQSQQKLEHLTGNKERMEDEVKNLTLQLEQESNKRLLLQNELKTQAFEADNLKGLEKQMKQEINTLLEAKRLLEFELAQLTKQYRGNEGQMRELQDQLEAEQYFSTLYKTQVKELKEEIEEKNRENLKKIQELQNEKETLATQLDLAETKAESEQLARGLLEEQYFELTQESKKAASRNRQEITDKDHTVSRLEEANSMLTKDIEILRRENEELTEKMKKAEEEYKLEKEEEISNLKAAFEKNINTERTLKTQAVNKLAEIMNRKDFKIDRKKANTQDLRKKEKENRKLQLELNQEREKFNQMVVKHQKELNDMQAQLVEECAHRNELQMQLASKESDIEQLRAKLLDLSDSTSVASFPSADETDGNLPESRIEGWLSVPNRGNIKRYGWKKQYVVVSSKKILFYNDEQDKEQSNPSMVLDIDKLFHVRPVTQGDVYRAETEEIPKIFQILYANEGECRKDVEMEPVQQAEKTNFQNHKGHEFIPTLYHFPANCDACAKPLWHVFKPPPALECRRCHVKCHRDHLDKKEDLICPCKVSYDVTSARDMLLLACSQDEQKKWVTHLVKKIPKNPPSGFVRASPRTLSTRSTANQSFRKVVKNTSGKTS
Source text: as §2

[2] = system: proliferative diabetic retinopathy; assay: preoperative treatment of proliferative diabetic retinopathy / diabetic macular edema; format: in vivo, human; details: with pegaptanib, compared to pegaptanib alone, intravitreal, 8 weeks after surgery
Procedure: The agents are administered by intravitreal injection. Subjects are evaluated over 8 weeks following surgery as to post operative rebleed, macular edema post injection, and pre- and post-injection levels of VEGF165. It is expected that compared to pegaptanib alone, administration of compound 154 results in reduced bleeding and macular edema.

CD4+ human T cells [3] = assay: cytokine secretion of anti-CD3/CD28 stimulated CD4+ T cells in vitro; format: cell-based; details: anti-CD3/CD28 stimulation
Source text: (§1) Activation of resting T cells, resulting in cytokine secretion and proliferation, involves two distinct signals from antigen-presenting cells (APCs), mimicked by co-stimulation of the T cell receptor (TCR)/CD3 complex and the CD28 receptor.

CD4+ human T cells [4] = assay: T cell proliferation in response to TCR stimulation in vitro; format: cell-based
Source text: as §1

STAT3 phosphorylation = STAT3 phosphorylation in T cells; format: cell-based
Procedure: STAT3 plays a critical role in Th17 differentiation via regulation of RORγt expression and direct binding to the IL-17 and IL-21 promoters. […] In a different experiment, cells we cultured under Th17-skewing conditions for 5 days and then treated with the ROCK2 selective inhibitor for 3 hours.

[5] = system: CD4+ T cells from peripheral blood of RA patients; assay: CD4+ T cells of RA patients stimulated with anti-CD3/CD28 ex vivo; format: cell-based, human
ROCK1 [6] = target: T2, ROCK1; assay: biochemical
Procedure: Dose response curves for Rho-kinase inhibition were derived from a Millipore immuno-based 96 well plate assay (Millipore catalog number CSA001). Purified active ROCK1 and ROCK2 were obtained from Invitrogen (catalog numbers ROCKI, PV3691 and ROCK2, PV3759). The kit components include assay plates, which are pre-coated with recombinant MYPT1, which contains a specifically phosphorylatable Thr696. The inhibitory activities of compounds are measured according to the manufactures protocol. […] The assay proceeds at 300 Celsius for 30 minutes with gentle shaking at 120 rpm. The assay is terminated by washing of the plate 3 times with Tris-buffered saline and tween wash buffer. Anti-phospho-MYPT1 (Thr696) antibody is added to each well to detect the phosphorylated substrate and incubated for 1 hour at room temperature after which HRP conjugated anti-rabbit IgG secondary is added for 1 hour at room temperature. After washing the assay is developed using a substrate reagent and the absorbance is read at 450 nm on a Tecan Infinite M1000 reflecting the relative remaining ROCK phosphorylation activity.

[7] = system: subfoveal choroidal neovascularization (CNV) lesion secondary to AMD; assay: study in subjects with subfoveal CNV lesion secondary to AMD; format: in vivo, human; details: Example 43 with Mab 106 vs Mab 106, six months
Procedure: A study is conducted of 50 men and women having subfoveal choroidal neovascularization (CNV) lesion secondary to AMD. […] Subjects are observed over six months to determine intraocular inflammation, macular thickness, and the status of macular perfusion. Visual acuity is also measured over the time period.

[8] = Z'-LYTE, 12 uM ATP, ROCK2 0.8 ug/mL, read-out: ROCK2 IC50
[9] = 2 RA patients, intracellular staining
[10] = RA patients, ex vivo, TCR stimulation

T1 sequence (O75116 whole entry): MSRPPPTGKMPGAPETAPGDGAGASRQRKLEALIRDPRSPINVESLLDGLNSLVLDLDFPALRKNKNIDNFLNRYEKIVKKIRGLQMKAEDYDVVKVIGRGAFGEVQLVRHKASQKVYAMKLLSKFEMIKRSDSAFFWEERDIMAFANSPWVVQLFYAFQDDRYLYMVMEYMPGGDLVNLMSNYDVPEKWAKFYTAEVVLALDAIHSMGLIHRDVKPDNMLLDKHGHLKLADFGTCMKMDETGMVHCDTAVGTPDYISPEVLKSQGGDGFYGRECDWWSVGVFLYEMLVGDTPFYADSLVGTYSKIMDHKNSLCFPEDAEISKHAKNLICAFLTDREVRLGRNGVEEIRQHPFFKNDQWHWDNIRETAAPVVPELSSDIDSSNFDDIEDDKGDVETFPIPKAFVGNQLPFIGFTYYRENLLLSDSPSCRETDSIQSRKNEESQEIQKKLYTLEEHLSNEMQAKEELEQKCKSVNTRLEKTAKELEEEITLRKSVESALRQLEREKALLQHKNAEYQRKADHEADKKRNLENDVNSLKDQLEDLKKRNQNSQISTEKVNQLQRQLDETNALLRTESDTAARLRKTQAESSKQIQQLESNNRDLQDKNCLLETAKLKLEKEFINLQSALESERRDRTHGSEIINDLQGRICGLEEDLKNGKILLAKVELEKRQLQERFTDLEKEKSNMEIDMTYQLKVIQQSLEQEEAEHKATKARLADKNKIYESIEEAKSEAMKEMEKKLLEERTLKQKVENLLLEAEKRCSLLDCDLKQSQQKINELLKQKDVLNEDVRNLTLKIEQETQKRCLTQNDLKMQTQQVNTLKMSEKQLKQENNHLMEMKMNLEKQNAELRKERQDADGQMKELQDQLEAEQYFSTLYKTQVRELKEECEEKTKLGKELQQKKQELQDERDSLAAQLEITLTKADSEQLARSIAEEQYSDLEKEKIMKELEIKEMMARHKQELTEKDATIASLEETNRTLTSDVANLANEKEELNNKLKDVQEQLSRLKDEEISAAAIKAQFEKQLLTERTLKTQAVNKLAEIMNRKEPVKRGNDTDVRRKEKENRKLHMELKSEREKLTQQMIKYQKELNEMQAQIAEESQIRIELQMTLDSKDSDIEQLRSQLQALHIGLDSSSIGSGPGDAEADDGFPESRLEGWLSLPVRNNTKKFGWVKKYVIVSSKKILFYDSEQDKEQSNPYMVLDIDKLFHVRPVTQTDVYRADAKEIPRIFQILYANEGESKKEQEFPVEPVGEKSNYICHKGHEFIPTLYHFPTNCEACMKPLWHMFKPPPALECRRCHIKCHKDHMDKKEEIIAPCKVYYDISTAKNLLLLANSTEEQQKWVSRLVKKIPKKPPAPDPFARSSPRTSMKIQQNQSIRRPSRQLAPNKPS

**Q.** What does the source list for `c1cc(OCCN2CCOCC2)cc(-c2nccc(Nc3ccc4[nH]ncc4c3)n2)c1` [Example 144, N-(2-(3-(2-morpholinoethoxyl)phenyl)pyrimidin-4-yl)-1H-indazol-5-amine]?
**A.** IC50 (ROCK2; [8]): 58 nM; IC50 (ROCK1 [1]): 1930 nM

**Q.** Which results are given for `CC(C)NC(=O)COc1cccc(-c2nc(Nc3ccc4[nH]ncc4c3)cc(N3CCCNCC3)n2)c1` [Example 121, 2-(3-(4-((1H-indazol-5-yl)amino)-6-(1,4-diazepan-1-yl)pyrimidin-2-yl)phenoxy)-N-isopropylacetamide]?
**A.** IC50 (ROCK2; [8]): 13 nM; IC50 (ROCK1 [1]): 1390 nM

**Q.** Which results are given for `COc1cccc(-c2nccc(Nc3ccc4[nH]ncc4c3)n2)c1` [Example 140, N-(2-(3-methoxyphenyl)pyrimidin-4-yl)-1H-indazol-5-amine]?
**A.** IC50 (ROCK2; [8]): 55 nM; IC50 (ROCK1 [1]): 1910 nM

**Q.** `CC(C)NCCOc1cccc(-c2nccc(Nc3ccc4[nH]ncc4c3)n2)c1` [Example 154, N-(2-(3-(2-(isopropylamino)ethoxy)phenyl)pyrimidin-4-yl)-1H-indazol-5-amine] was tested. Which “bleeding (post operative rebleed)” value [2] did it give?
**A.** reduced

**Q.** And the macular edema [2]?
**A.** reduced

**Q.** What does the source list for `O=C(Oc1cccc(-c2nccc(Nc3ccc4[nH]ncc4c3)n2)c1)N1CCOCC1` [Example 129, 3-(4-((1H-indazol-5-yl)amino)pyrimidin-2-yl)phenyl morpholine-4-carboxylate]?
**A.** IC50 (ROCK2; [8]): 10 nM; IC50 (ROCK1 [1]): 1100 nM

**Q.** `CN(C)C(=O)Oc1cccc(-c2nccc(Nc3ccc4[nH]ncc4c3)n2)c1` [Example 131, 3-(4-((1H-indazol-5-yl)amino)pyrimidin-2-yl)phenyl dimethylcarbamate] was tested. Which IC50 (ROCK2) did it give?
**A.** 39 nM

**Q.** For `CC(N)c1cccc(-c2nccc(Nc3ccc4[nH]ncc4c3)n2)c1` (centres unmarked) [Example 147, N-(2-(3-(1-aminoethyl)phenyl)pyrimidin-4-yl)-1H-indazol-5-amine], which IC50 (ROCK2; [8]) is on record?
**A.** > 5500 nM

**Q.** And the IC50 (ROCK1 [1])?
**A.** > 2000 nM

**Q.** How did the IC50 (ROCK2; [8]) turn out when `CC(C)NC(=O)COc1cccc(-c2nc(Nc3ccc4[nH]ncc4c3)cc(C(F)(F)F)n2)c1` [Example 169] was run?
**A.** > 10000 nM

**Q.** And the IC50 (ROCK1 [1])?
**A.** > 10000 nM

**Q.** Which results are given for `CC(C)NC(=O)COc1cccc(-c2nc(Nc3ccc4[nH]ncc4c3)c3ccccc3n2)c1` [SLx-2119]?
**A.** IL-17 secretion (CD4+ human T cells [3]; dose-dependent): significantly inhibited; IL-21 secretion (CD4+ human T cells [3]; dose-dependent): significantly inhibited; inhibition of IFN-γ secretion (CD4+ human T cells [3]; high dose 10 μM): less robust and significant only at high dose; ability of T cells to proliferate in response to TCR stimulation (CD4+ human T cells [4]): down-regulated; phosphorylation of STAT3 (STAT3 phosphorylation; T cells pre-treated, then stimulated with anti-CD3/CD28 antibodies): reduced; STAT3 phosphorylation (STAT3 phosphorylation; Th17-skewing conditions 5 days, then treated 3 hours): reduced; frequency of IFN-γ-producing cells [5, 9]: significantly reduced; frequency of IL-17-producing cells [5, 9]: significantly reduced; IFN-γ secretion [5, 10]: significantly down-regulated; IL-17 secretion [5, 10]: significantly down-regulated; IL-21 secretion [5, 10]: significantly down-regulated

**Q.** What does the source list for `O=C(COc1cccc(-c2nccc(Nc3ccc4[nH]ncc4c3)n2)c1)N[C@@H]1CCNC1` [Example 12, (R)-2-(3-(4-((1H-indazol-5-yl)amino)pyrimidin-2-yl)phenoxy)-N-(pyrrolidin-3-yl)acetamide HCl salt]?
**A.** IC50 (ROCK1 [6]): 1770 nM; Ki (ROCK1 [6]): 70 nM

**Q.** `CC(C)NC(=O)COc1cccc(-c2ncc(OCCN(C)C)c(Nc3ccc4[nH]ncc4c3)n2)c1` [Example 43, 2-(3-(4-((1H-indazol-5-yl)amino)-5-(2-(dimethylamino)ethoxy)pyrimidin-2-yl)phenoxy)-N-isopropylacetamide TFA salt] was tested. Which IC50 (ROCK2; [8]) did it give?
**A.** 25 nM

**Q.** What about the intraocular inflammation [7] of the same compound?
**A.** less

**Q.** And the macular perfusion [7]?
**A.** less

**Q.** What about the IC50 (ROCK1 [1]) of the same compound?
**A.** 750 nM

**Q.** For `c1cc(OCc2ccncc2)cc(-c2nccc(Nc3ccc4[nH]ncc4c3)n2)c1` [Example 136, N-(2-(3-(pyridin-4-ylmethoxy)phenyl)pyrimidin-4-yl)-1H-indazol-5-amine], which IC50 (ROCK1 [1]) is on record?
**A.** 170 nM

**Q.** How did the IC50 (ROCK2; [8]) turn out when `COCCOc1cccc(-c2nccc(Nc3ccc4[nH]ncc4c3)n2)c1` [Example 138, N-(2-(3-(2-methoxyethoxyl)phenyl)pyrimidin-4-yl)-1H-indazol-5-amine] was run?
**A.** 8 nM

**Q.** And the IC50 (ROCK1 [1])?
**A.** 1980 nM
